Data as given in ChEMBL document CHEMBL3988442, “University of Dundee, Small-Polar-MMV Screening Library” (2021).
Values joined by “and” are separate entries in the source; they are usually repeats but may differ in a detail not shown here. Identical values can stand only once.

Target: T1, Coenzyme A biosynthesis bifunctional protein CoaBC (Mycobacterium tuberculosis (strain ATCC 25618 / H37Rv), UniProt P9WNZ1)
T1 sequence (P9WNZ1 whole entry): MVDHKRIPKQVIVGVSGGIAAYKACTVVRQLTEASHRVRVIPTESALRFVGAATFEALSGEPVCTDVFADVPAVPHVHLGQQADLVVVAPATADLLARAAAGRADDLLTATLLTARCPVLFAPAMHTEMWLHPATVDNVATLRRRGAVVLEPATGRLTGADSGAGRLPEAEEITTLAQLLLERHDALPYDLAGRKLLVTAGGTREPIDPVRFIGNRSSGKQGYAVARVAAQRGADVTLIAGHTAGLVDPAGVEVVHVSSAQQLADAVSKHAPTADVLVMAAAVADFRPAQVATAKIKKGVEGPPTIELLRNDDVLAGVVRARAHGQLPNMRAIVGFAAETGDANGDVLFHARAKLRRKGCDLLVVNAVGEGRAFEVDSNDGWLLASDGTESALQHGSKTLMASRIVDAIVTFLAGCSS
Experiment: Biomol Green assay for MtCoaBC inhibitor, OD650 read
Format: functional

| SMILES | IC50 |
| --- | --- |
| CN1CCOC(CNCc2cccc(OC(F)(F)F)c2)C1 (stereo not given) | > 30.2 µM |
| CCC(=O)N1CCc2[nH]cnc2C12CCN(CC1CCOC1)CC2 (stereo not given) | > 30.2 µM |
| CN(C)C(=O)CN1CCCC2(CCN(c3ccsc3)C2=O)C1 (stereo not given) | > 30.2 µM |
| COc1cccc([C@@]2(O)CC[C@@H]3CN(C(=O)c4ccn(C)n4)C[C@@H]32)c1 | > 30.2 µM |
| O=C(CCC1CCN(C2CCSCC2)CC1)NCC1CCCO1 (stereo not given) | > 30.2 µM |
| CC(C)N1CCC(C(=O)N2CCc3c(nc(CC4CC4)[nH]c3=O)C2)CC1 | > 30.2 µM |
| CCC[C@@H]1CN(Cc2c[nH]nc2-c2ccc(OC)cc2)C[C@H]1NC(C)=O | > 30.2 µM |
| CC(=O)N1CCC(N2CCN3C(=O)N(Cc4ccccn4)C[C@H]3C2)CC1 | > 30.2 µM |
| CC(C)c1noc(CN2CCN(C(=O)c3cccnc3O)CC2)n1 | > 30.2 µM |
| O=C(Nc1ccc(-n2cncn2)nc1)N(CC1CCOC1)C1CC1 (stereo not given) | > 30.2 µM |
| Cc1cccc(C(=O)NCC2CCS(=O)(=O)C2)n1 (stereo not given) | > 30.2 µM |
| CCn1cc(Cl)c(C(=O)NCCCN(C)C)n1 | > 30.2 µM |
| COc1cccc(CNC(=O)c2cc(C)nc(N3CCCCC3)n2)c1 | > 30.2 µM |
| CCc1ncc2c(n1)CN(Cc1nc(-c3cccs3)no1)CC2 | > 30.2 µM |
| Cc1cc(C)nc(N2CCC(C(=O)Nc3ncc[nH]3)CC2)n1 | > 30.2 µM |
| Cc1cc(C(F)(F)F)nn1CC(C)C(=O)Nc1ccccn1 (stereo not given) | > 30.2 µM |
| CC(C)c1ncc2c(n1)CN(Cc1nc(-c3ccccn3)no1)CC2 | > 30.2 µM |
| CCNC(=O)C1(Cc2cc(-c3ccc(C)cc3)no2)CCCN(C)C1 (stereo not given) | > 30.2 µM |
| Cc1cc(C2CCCN2CCC(=O)N2CCc3sccc3C2)no1 (stereo not given) | > 30.2 µM |
| CN(CC(N)=O)C(=O)c1csc(Br)c1 | > 30.2 µM |
| COCCN(Cc1cnn(C)c1)CC1CCN(C(C)C)CC1 | > 30.2 µM |
| c1cc(-c2nnc([C@H]3CCNC3)o2)ccn1 | > 30.2 µM |
| CCS(=O)(=O)c1ccc2oc([C@H]3CCN(Cc4ccccn4)C3)nc2c1 | > 30.2 µM |

| SMILES | IC50 |
| --- | --- |
| COCCNC(=O)CCNc1cc(C)nc(-c2ccncc2)n1 | > 30.2 µM |
| CC(=O)N1CC(c2ccnc(Nc3nccs3)n2)C1 | > 30.2 µM |
| Cc1cc(C)nc(N2CCCC(C(=O)Nc3n[nH]c(C(C)C)n3)C2)n1 (stereo not given) | > 30.2 µM |
| COCCN(C)CC(=O)N1CCCC2(CCC(=O)N(CC3CC3)C2)C1 (stereo not given) | > 30.2 µM |
| O=C(CCNc1ccccc1)NC1CCN(C(=O)C2CCCCC2)CC1 | > 30.2 µM |
| Cc1cc(NC(=O)CN2CCN(c3nccs3)C(C)C2)no1 (stereo not given) | > 30.2 µM |
| COc1ccccc1C1CC(=O)Nc2c1c(=O)[nH]n2C1CCCC1 (stereo not given) | > 30.2 µM |
| CCNC(=O)NC(=O)CNC(C)(C)c1ccc2c(c1)OCCO2 | > 30.2 µM |
| CC(C)c1nc(CNC2CCN(C(=O)OC(C)(C)C)CC2)cs1 | > 30.2 µM |
| Cc1nn(C)c(C)c1NC(=O)CN1CCN(c2nccs2)C(C)C1 (stereo not given) | > 30.2 µM |
| O=S(=O)(c1cccc(F)c1)N1C[C@@H]2COC[C@]2(COCC2CC2)C1 | > 30.2 µM |
| Cc1noc(C2CCC3(CCN(C(=O)c4ccncn4)CC3)O2)n1 (stereo not given) | > 30.2 µM |
| CC(C)COCC(NC(=O)c1cnccn1)c1ccco1 (stereo not given) | > 30.2 µM |
| C[S+]([O-])c1nncn1CC(=O)c1ccc(Cl)c(Cl)c1 (stereo not given) | > 30.2 µM |
| OC(CN1CCC(c2ccn[nH]2)CC1)c1ccc(F)cc1F (stereo not given) | > 30.2 µM |
| CC1CCN(c2nc(O)cc(C3CC(=O)N(C4CCCCC4)C3)n2)CC1 (stereo not given) | > 30.2 µM |
| CNC(=O)CCc1cccc(C2CCCN(c3cc(C)ncn3)C2)n1 (stereo not given) | > 30.2 µM |
| CC(C)C(NC(=O)NCC1(CO)CC1)c1nnc2n1CCC2 (stereo not given) | > 30.2 µM |
| CC(C)N(CC(C)(C)O)C(=O)NC1CC1 | > 30.2 µM |
| O=C(c1ccnc(C2CCNCC2)c1)N1CCCC(CO)C1 (stereo not given) | > 30.2 µM |
| CC(C)(CNC(=O)C1(c2ccccc2)CCOCC1)C(=O)O | > 30.2 µM |
| O=C(O)COc1ccc(CN2CCCC(CCc3ccccc3)C2)cc1 (stereo not given) | 19.9 µM and 19.6 µM |
| O=C1CN(Cc2cn(CC3CCCN(C4CCSCC4)C3)nn2)CCN1 (stereo not given) | > 30.2 µM |

| SMILES | IC50 |
| --- | --- |
| COc1cccc(N2CCC(CNCc3cccc(C#N)c3)C2)c1 (stereo not given) | > 30.2 µM |
| Cc1cccc(CN(C(=O)CCn2cncn2)C(C)C)c1 | > 30.2 µM |
| Cc1ccc(CCCC(=O)N(C)CCN2CCOCC2)cc1 | > 30.2 µM |
| CC1CCN(c2ccc(C(=O)N3CCCC3c3ccc[nH]3)cn2)CC1 (stereo not given) | > 30.2 µM |
| CCn1cc(CN2CCC(c3ncc(Cl)cc3S(C)(=O)=O)CC2)c(C)n1 | > 30.2 µM |
| O=C1CN(Cc2occc2C(=O)NCCc2ccc(F)cc2)CCN1 | > 30.2 µM |
| NC(Cc1nc(-c2ccccc2)no1)c1ccccc1 (stereo not given) | > 30.2 µM |
| Cc1cccc(CN2CC3(CCN(C(N)=O)CC3)OCC2=O)n1 | > 30.2 µM |
| CN(C)CCO[C@@H]1CC[C@H]2[C@H]1OCCN2C(=O)c1ccncc1 | > 30.2 µM |
| COc1ccc(Cl)cc1C(=O)NCCNc1cnccn1 | > 30.2 µM |
| Cc1c(C(=O)N2CCN(c3ccccn3)CC2)n(C)c2ccc(Cl)cc12 | > 30.2 µM |
| Cc1nonc1OCCNC(=O)COc1ccc(F)cc1F | > 30.2 µM |
| Cc1cc(C)c(C(=O)NC(c2nnc3n2CCNCC3)C(C)C)c(C)c1 (stereo not given) | > 30.2 µM |
| Cc1nnc(CN(Cc2ccc3c(c2)OCO3)C2CCCCC2)o1 | > 30.2 µM |
| CCn1ccnc1CNCc1ccc(C)cc1OC(C)(C)C | > 30.2 µM |
| Cc1ccc(CN2CCN(C3CCCC3)CC2CCO)o1 (stereo not given) | > 30.2 µM |
| O=C1CC(c2ccc(C(=O)O)cc2)c2c(sc3c2CCCC3)N1 (stereo not given) | > 50.1 µM |
| CC[C@@H](Cn1ncc2ccccc2c1=O)NC(=O)c1ccco1 | > 30.2 µM |
| COc1cc(CNC2CCc3nc(C)nn3C2)cc2c1OCO2 (stereo not given) | > 30.2 µM |
| Cc1nc(C)c(CC(=O)N2CCC(c3ccn4nccc4n3)CC2)s1 | > 30.2 µM |
| CCCN(Cc1ccccc1C)C(CC)CO (stereo not given) | > 30.2 µM |
| CCn1ncnc1C(C)NC(=O)CC1CCN(C(C)C)CC1 (stereo not given) | > 30.2 µM |
| CC(NCC1(N(C)C)CCOCC1)c1ccc(SC(F)F)cc1 (stereo not given) | > 30.2 µM |

| SMILES | IC50 |
| --- | --- |
| CN(CC(C)(CO)CO)C(=O)Nc1cc(Cl)cc(Cl)c1 | > 30.2 µM |
| COCCN(Cc1cnn(C)c1)CC1CCOC1 (stereo not given) | > 30.2 µM |
| Cc1ccc(CNCCN2CCOCC2)o1 | > 30.2 µM |
| O[C@]12CCNC[C@H]1CN(c1ncccc1Cl)CC2 | > 30.2 µM |
| CC[C@@H]1N(Cc2cc(OC)cc(OC)c2)CCC[C@]12CCC(=O)N2C | > 30.2 µM |
| Cc1sc(NC(=O)CN(C)CCOc2cccc(F)c2)c(C)c1C | > 30.2 µM |
| Cc1ncc2c(n1)CCN(CCCc1nc3ccccc3o1)C2 | > 50.1 µM |
| CN(Cc1ccccc1)C(=O)Cn1nc(N2CCOCC2)ccc1=O | > 30.2 µM |
| CCC(c1ccc(F)cc1F)N1CCN(CCO)CC1 (stereo not given) | > 30.2 µM |
| CCN1C[C@H]2[C@@H](C1)N(S(=O)(=O)c1cccnc1)CC[C@H]2OC | > 30.2 µM |
| CC1CCN(CCNC(=O)c2ccn(-c3ccc(F)cc3)n2)CC1 | > 30.2 µM |
| Cc1nn(-c2ccccc2)cc1C(=O)N1CCCC1c1cnn(C)c1 (stereo not given) | > 30.2 µM |
| CC(CS(C)(=O)=O)N(C(=O)CCc1cccc(F)c1)C1CC1 (stereo not given) | > 30.2 µM |
| CN(Cc1nccs1)C1CCN(c2cccc(-c3cscn3)c2)CC1 | > 30.2 µM |
| CCSCc1csc(-c2ccc(S(C)(=O)=O)cc2)n1 | > 30.2 µM |
| Cc1cccc(NC2CCN(C(=O)Nc3ccccn3)CC2)n1 | > 30.2 µM |
| O=C1O[C@@H]2CN(c3ccc(Cl)cn3)C[C@@H]2N1CCc1ccc(F)cc1 | > 30.2 µM |
| O=C(c1cccnc1SC/C=C/c1ccccc1)N1CCOCC(O)C1 (stereo not given) | > 30.2 µM |
| Cc1nonc1C1CCCN1Cc1ccc(C(=O)Nc2nccs2)cc1 (stereo not given) | > 30.2 µM |
| Cn1cc(N2C(=O)CC[C@@H]3[C@H]2CCN3Cc2nccs2)cn1 | > 30.2 µM |
| Cc1ccc(C(=O)O)cc1CNC(=O)CN1CC[C@](C)(O)C(C)(C)C1 | > 30.2 µM |
| Cc1[nH]ncc1C(=O)NCC(CO)Cc1ccc(Cl)cc1 (stereo not given) | > 30.2 µM |
| CC(C)N1CCC(NC(=O)c2cn(-c3ccc(F)cc3)nn2)C1 (stereo not given) | > 30.2 µM |

| SMILES | IC50 |
| --- | --- |
| O=C(NCCc1ccncc1)[C@H]1C[C@@H]2CCN(c3nncs3)C[C@H]2O1 | > 30.2 µM |
| Cc1csc(CN2CCC[C@]3(C[C@H](Oc4ccccn4)CO3)C2)n1 | > 30.2 µM |
| CCC(=O)N1CCCCC1c1nc(O)c2c(n1)CN(S(=O)(=O)CC)CC2 (stereo not given) | > 30.2 µM |
| O=C(NCCNc1ncccn1)C1CCCC1 | > 30.2 µM |
| Cc1cc(C)n(-c2cccc(C(=O)Nc3n[nH]c(C4CCCO4)n3)c2)n1 (stereo not given) | > 30.2 µM |
| COc1ccc(CN[C@@H]2CO[C@H](CNC(=O)N3CCOCC3)[C@H]2O)cc1 | > 30.2 µM |
| COCCNC(=O)c1nc2c(s1)CCCN2c1ccc(C)nn1 | > 30.2 µM |
| FC(F)(F)c1cccnc1N1CCC(OC2CCOCC2)CC1 | > 30.2 µM |
| Nc1ccncc1-n1cc(CCO)cn1 | > 30.2 µM |
| Cc1nccnc1-n1c(COCC(=O)O)nc2c(C)cccc21 | > 50.1 µM |
| CCCc1noc(C(C)N2CCN(CCn3ccccc3=O)CC2)n1 (stereo not given) | > 30.2 µM |
| c1ccc(Cc2noc(CCNC3CCOC4(CCOCC4)C3)n2)cc1 (stereo not given) | > 30.2 µM |
| Cc1nc(-c2cc(C(=O)O)co2)cs1 | > 30.2 µM |
| Cc1noc([C@@H]2C[C@H](NS(=O)(=O)Cc3ccccc3)CN2C)n1 | > 30.2 µM |
| Cc1nc(N2CCC(CN3CCCC3)CC2)c2cnn(C)c2n1 | > 30.2 µM |
| CCOCC1CN(C(=O)C2=CCCC2)Cc2cnn(C)c21 (stereo not given) | > 30.2 µM |
| CSc1nc(C)cc(N2CCC(c3ncc[nH]3)CC2)n1 | > 30.2 µM |
| Cc1cc(CN2CCOC(CNc3cccnn3)C2)no1 (stereo not given) | > 30.2 µM |
| CC(C)c1noc(C[S+]([O-])CC(=O)Nc2ccc(F)c(F)c2)n1 (stereo not given) | > 30.2 µM |
| NC(=O)C1CCN(S(=O)(=O)c2cnn(-c3ccccc3)c2)C1 (stereo not given) | > 30.2 µM |
| CN(C)c1ccc(C(=O)N2CCC(c3cc4cnccc4[nH]3)CC2)cc1 | > 30.2 µM |
| COCCCN(Cc1ccccn1)S(=O)(=O)N(C)C | > 30.2 µM |
| CC(C(=O)NC1CC1)n1nc(-c2cccs2)cc(N)c1=O (stereo not given) | > 30.2 µM |
